Measurements published in US20090220996A1, “In vitro Assay Methods for Classifying Embryotoxicity of Compounds” (RELIANCE LIFE SCIENCES PVT LTD., priority 2007, published 2009).
≈ marks a conversion by molar mass, not a printed value. Like-named read-outs stand apart in the source and are kept apart here.

Assays:
[1] = system: human embryonic stem cells (hES); assay: Cytotoxicity in undifferentiated human embryonic stem cells, day 15 (FACS with PI / CyQUANT); type: cell-based; conditions: Homo sapiens, Embryonic stem cell
Procedure: In general, the presently disclosed embryotoxicity testing protocols comprise the following sequence of steps. Studies using embryoid bodies generally comprise: a) preparation of various concentrations of test solutions in culture medium or a desired solvent; b) preparation of a cell suspension by enzymatic digestion of human embryonic stem cell colonies; c) culturing the cell suspension for formation of embryoid bodies in the presence and absence of one or more test solutions, and incubation for several days (e.g., three days) in hanging drops; d) cultivation of the embryoid bodies in bacteriological petri dishes for several days (e.g., two days) under controlled conditions; e) transfer of the embryoid bodies into 96 well plates and incubation for several days (e.g., 10 days) in the presence of one or more test solutions; and f) detection of the viability of the embryoid bodies after 15 days by MTT assay, or fluorescent or luminescent method, and isolation of RNA for studying gene expression. Studies using human foreskin fibroblasts (HFF) generally comprise: a) preparation of various concentrations of test solutions in culture medium or a desired solvent; b) plating of HFF cells in 96 well plates in the presence or absence of one or more test solutions for 15 days, changing the media and test solutions every 2 days; and c) detection of the viability of HFF after 15 days by MTT assay, or fluorescent or luminescent method. Studies using human embryonic stem cells generally comprise: a) preparation of various concentrations of test solutions in culture medium or a desired solvent; b) preparation of hES colonies by manual passage in the presence and absence of one or more test solutions, and incubation for 15 days on matrigel coated plates changing the media and test solutions every 2 days; c) disruption of the colonies after 15 days with enzymes to form single cells; d) labeling of single cells with a fluorescently-labeled dye, such as propidium iodide (“PI”); and e) detection of the percentage viability with FACS as a measure of cytotoxicity. […]
After 2 hours incubation, 150 μl of assay medium containing the appropriate concentration of test chemical (150 μl volume contains 1.333× the final chemical concentration) was added. Appropriate blanks without the chemicals were used along with the test samples The cell cultures were incubated at 5% CO2 and 37° C. for 3 days. On day 3, test solution was removed with the care, so that the cell layer on the bottom of the wells was not disturbed. Next, 200 μl of freshly prepared test solution (final concentration/well as on day 0) was added, and the cell cultures were incubated at 5% CO2 and 37° C. for 3 days. This process was repeated on days 6, 9, and 12. Determination of cell growth inhibition was performed at day 15 of the assay using MTT reagent. Cytotoxicity for hES cells was calculated using flow cytometry. Briefly, cells were placed on matrigel coated plates along with different test compound concentrations. Media was replaced every 3 days along with the different test compound concentrations. At day 15, hES cells were collected by trypsinization, and after washing with PBS, the cells were incubated with PI for 10 minutes in the dark. Percent viability for various test compound concentrations was calculated using flow cytometry.
Cytotoxicity analysis of three cell types (hES, hEBs and HFF) was evaluated using the CyQUANT assay following compound treatment. All data were the mean of three independent experiments for each cell type. Data is represented as the mean±SE.

[2] = system: human embryoid bodies (hEB); assay: Cytotoxicity in human embryoid bodies, day 15 (MTT / CyQUANT); conditions: for IC50: Homo sapiens
Procedure: In general, the presently disclosed embryotoxicity testing protocols comprise the following sequence of steps. Studies using embryoid bodies generally comprise: a) preparation of various concentrations of test solutions in culture medium or a desired solvent; b) preparation of a cell suspension by enzymatic digestion of human embryonic stem cell colonies; c) culturing the cell suspension for formation of embryoid bodies in the presence and absence of one or more test solutions, and incubation for several days (e.g., three days) in hanging drops; d) cultivation of the embryoid bodies in bacteriological petri dishes for several days (e.g., two days) under controlled conditions; e) transfer of the embryoid bodies into 96 well plates and incubation for several days (e.g., 10 days) in the presence of one or more test solutions; and f) detection of the viability of the embryoid bodies after 15 days by MTT assay, or fluorescent or luminescent method, and isolation of RNA for studying gene expression. Studies using human foreskin fibroblasts (HFF) generally comprise: a) preparation of various concentrations of test solutions in culture medium or a desired solvent; b) plating of HFF cells in 96 well plates in the presence or absence of one or more test solutions for 15 days, changing the media and test solutions every 2 days; and c) detection of the viability of HFF after 15 days by MTT assay, or fluorescent or luminescent method. Studies using human embryonic stem cells generally comprise: a) preparation of various concentrations of test solutions in culture medium or a desired solvent; b) preparation of hES colonies by manual passage in the presence and absence of one or more test solutions, and incubation for 15 days on matrigel coated plates changing the media and test solutions every 2 days; c) disruption of the colonies after 15 days with enzymes to form single cells; d) labeling of single cells with a fluorescently-labeled dye, such as propidium iodide (“PI”); and e) detection of the percentage viability with FACS as a measure of cytotoxicity.
The culturing of the cell suspension is done by dispensing about ¼ of the cell suspension along with test chemicals on the inner side of a 100 mm bacteriological petri dish. Around 50-80 drops are dispensed for each concentration, the untreated control, and the solvent control. The lid is turned carefully into its regular position and is put on top of a petri dish containing 5 ml of phosphate buffered saline (“PBS”). The “hanging drops” are incubated for three days in a humidified atmosphere with 5% CO2 at 37° C.
On day 3, 5 ml of freshly prepared test solution is added to the lid of the “hanging drops” petri dish. The embryoid bodies are carefully transferred from the lid of the “hanging drops” petri dish to a 60 mm bacteriological petri dish. The suspension is cultivated for two days in a humidified atmosphere with 5% CO2 at 37° C.
On the 5th day, the EBs are transferred into 96 well plates by placing 10 EBs in each well. About 150 μl of freshly prepared test solution is added to each well, and three wells are used for each concentration. The 96 well plates are incubated for […] in a humidified atmosphere with 5% CO2 at 37° C. The remaining EBs are plated on a 24 well plate coated with 0.2% gelatin and allowed to differentiate. Media was replaced every second day until day 15.
On the 15th day, an MTT assay is performed. MTT solution (5 mg/ml) is prepared in culture medium containing test chemical. The MTT solution is added to all wells and incubated at 37° C. in a humidified atmosphere of 5% CO2 for 4 hours, after which the MTT desorb solution (acidified isopropanol) is added to each well. The plate is shaken on a micrometer plate for 15 minutes to dissolve the formazan. The absorbance is measured at 550-570 nm in a microtiter plate reader using 630 nm as a reference wavelength.

[3] = system: human embryoid bodies (hEBs); assay: Morphological evaluation of embryoid bodies (photomicrographs); type: cell-based; conditions: day 7 hEBs; FIG. 4A-4D
Procedure: Hanging drops were made in hES media with LIF and bFGF for calculating IC50-hES cells, and in hES media without LIF and bFGF (hEB media) for the formation of EBs. On day 3 the hES colonies were collected along with the respective test compound concentration, whereas the hEBs were collected and transferred to 60 mm bacteriological petri plates for another 2 days. Morphology of the EBs was monitored under the microscope for the formation of EBs. On day 5 the hEBs were plated in a 96 well plate for MTT, as well as on a 6 well plate for RNA extraction. The media along with the appropriate test compound concentration was replaced in the 96 well and 6 well plates on days 7, 9, 11, and 13. On day 15, MTT was performed on the hES plate and the differentiated EBs. RNA was extracted from all the concentrations of 5-fluorouracil, and 1 μg of RNA was converted to cDNA to perform RT-PCR, real time PCR, or TLDA.

[4] = system: 3T3 (mouse fibroblast cell line); conditions: Table 4; from the EST (Genschow, et al., 2000); cited from earlier work
mouse ES cells = conditions: Table 4; from the EST (Genschow, et al., 2000); cited from earlier work
[5] = Table 5; cited from earlier work

O=C1NS(=O)(=O)c2ccccc21 [Saccharin, saccharin]
IC50 ([1]; 360 h, Table 3, mean of 3 experiments, day 15, read-out: IC50-hES): 1920 ± 22.5 µg/mL (≈ 10.5 mM) | IC50 ([1]; Table 4, CyQuant cell viability assay, read-out: Human EST IC50 - hES): 1920 ± 22.5 µg/mL (≈ 10.5 mM) | IC50 ([2]; 360 h, read-out: IC50-hEB): 1550 ± 34.5 µg/mL (≈ 8.44 mM) | IC50 ([2]; read-out: IC50-hEBs): 1550 µg/mL (≈ 8.44 mM) | cell survival ([2]; hEBs, 1000 μg/ml, CyQUANT, FIG. 4A/4B): about 60% | concentration required to elicit a similar morphological response (loss of compactness, decreased EB size) [3]: 5000 μg/ml | Mouse EST IC50 - 3T3 [4]: 3000 µg/mL | Mouse EST IC50 - mES (mouse ES cells): 3498 µg/mL | General toxicity [5]: Obesity
